Results as given in patent publication US20250304563A1, “ACTIVATORS OF EFFECTOR T CELLS” (Orum Therapeutics, Inc., priority 2022, published 2025).

Target: Cbl-b (36-427 aa truncated form, N-terminus Avi-tag) (Homo sapiens (Human), UniProt Q13191)
Experiment: Cbl-b binding: TR-FRET displacement of BODIPY-FL probe
Experimental: Compounds were assessed for binding activity to Cbl-b by their ability to compete with and displace a probe comprised of BODIPY-FL fluorophore conjugated to a Cbl-b inhibitor (see Example 54 in WO2020264398). In the assay, a 36-427 aa truncated form of Cbl-b with an N-terminus Avi-tag was incubated 20 mM HEPES pH 7.5, 150 mM NaCl, 0.01% Triton X-100, 0.1% BSA, 0.5 mM TCEP buffer with streptavidin-terbium (Cisbio). After one hour of incubation at room temperature, 1 uM each of fluorescent probe and compound were combined with the reaction mixture. Compounds with Cbl-b binding activity competitively displace the fluorophore tagged inhibitor thereby disrupting the FRET signal from the terbium-BODIPY-FL complex. The reaction mixtures were incubated for one additional hour at room temperature to allow for competition between inhibitor and candidate compounds to occur. The time resolved FRET (TR-FRET) signal was then read at 520/620 […] (excitation/emission) using a Spectramax M5e plate reader (Molecular Devices) to measure probe displacement. Compounds with Cbl-b binding activity had decreased FRET signal owing to disruption of the terbium-BODIPY-FL FRET complex. Standard methods in PRISM were used to calculate the compound IC50 values from the experimental data.

Sequence of Cbl-b (36-427 aa truncated form, N-terminus Avi-tag) (Q13191 36-427): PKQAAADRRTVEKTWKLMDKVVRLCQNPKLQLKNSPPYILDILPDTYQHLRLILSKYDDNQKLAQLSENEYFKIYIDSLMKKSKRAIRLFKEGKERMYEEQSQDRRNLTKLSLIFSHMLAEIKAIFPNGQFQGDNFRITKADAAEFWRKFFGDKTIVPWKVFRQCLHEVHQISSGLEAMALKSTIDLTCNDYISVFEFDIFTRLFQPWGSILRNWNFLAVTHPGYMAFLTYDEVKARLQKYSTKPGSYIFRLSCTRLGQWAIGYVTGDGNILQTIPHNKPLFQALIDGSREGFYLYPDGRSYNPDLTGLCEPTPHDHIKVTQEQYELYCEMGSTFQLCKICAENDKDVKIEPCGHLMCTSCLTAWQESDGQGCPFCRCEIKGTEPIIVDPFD

| IC50 [µM] | SMILES |
| --- | --- |
| 0.02 to 0.1 | C#CCN1CCN(c2cc(C3(Cc4nncn4C)COC3)cc(N3Cc4c(cc(CN5CCC[C@H](C)C5)cc4C(F)(F)F)C3=O)n2)CC1 [Compound 127, (S)-2-(4-(3-((4-methyl-4H-1,2,4-triazol-3-yl)methyl)oxetan-3-yl)-6-(4-(prop-2-yn-1-yl)piperazin-1-yl)pyridin-2-yl)-6-((3-methylpiperidin-1-yl)methyl)-4-(trifluoromethyl)isoindolin-1-one] |
| 0.02 to 0.1 | C[C@H]1CCCN(Cc2cc3c(c(C(F)(F)F)c2)CN(c2cc(C4(Cc5nncn5C)COC4)cc(N4CCN(CC#N)CC4)n2)C3=O)C1 [Compound 128, (S)-2-(4-(4-(3-((4-methyl-4H-1,2,4-triazol-3-yl)methyl)oxetan-3-yl)-6-(6-((3-methylpiperidin-1-yl)methyl)-1-oxo-4-(trifluoromethyl)isoindolin-2-yl)pyridin-2-yl)piperazin-1-yl)acetonitrile] |
| 0.02 to 0.1 | Cc1cn(CCNc2cc(C3(Cc4nncn4C)COC3)cc(N3Cc4c(cc(CN5CCC[C@H](C)C5)cc4C(F)(F)F)C3=O)n2)nn1 [Compound 129, (S)-2-(6-((2-(4-methyl-1H-1,2,3-triazol-1-yl)ethyl)amino)-4-(3-((4-methyl-4H-1,2,4-triazol-3-yl)methyl)oxetan-3-yl)pyridin-2-yl)-6-((3-methylpiperidin-1-yl)methyl)-4-(trifluoromethyl)isoindolin-1-one] |
| 0.02 to 0.1 | C[C@H]1CCCN(Cc2cc3c(c(C(F)(F)F)c2)CN(c2cc(C4(Cc5nncn5C)COC4)cc(N4CCN(C(=O)Cc5nnn[nH]5)CC4)n2)C3=O)C1 [Compound 131, (S)-2-(6-(4-(2-(1H-tetrazol-5-yl)acetyl)piperazin-1-yl)-4-(3-((4-methyl-4H-1,2,4-triazol-3-yl)methyl)oxetan-3-yl)pyridin-2-yl)-6-((3-methylpiperidin-1-yl)methyl)-4-(trifluoromethyl)isoindolin-1-one] |
| 0.02 to 0.1 | C[C@H]1CCCN(Cc2cc3c(c(C(F)(F)F)c2)CN(c2cc(C4(Cc5nncn5C)COC4)cc(N4CCN(C(=O)CN=[N+]=[N-])CC4)n2)C3=O)C1 [Compound 132, (S)-2-(6-(4-(2-azidoacetyl)piperazin-1-yl)-4-(3-((4-methyl-4H-1,2,4-triazol-3-yl)methyl)oxetan-3-yl)pyridin-2-yl)-6-((3-methylpiperidin-1-yl)methyl)-4-(trifluoromethyl)isoindolin-1-one] |
| 0.00501 to 0.02 | C=CCS(=O)(=O)N1CCN(c2cc(C3(Cc4nncn4C)COC3)cc(N3Cc4c(cc(CN5CCC[C@H](C)C5)cc4C(F)(F)F)C3=O)n2)CC1 [Compound 133, (S)-2-(6-(4-(allylsulfonyl)piperazin-1-yl)-4-(3-((4-methyl-4H-1,2,4-triazol-3-yl)methyl)oxetan-3-yl)pyridin-2-yl)-6-((3-methylpiperidin-1-yl)methyl)-4-(trifluoromethyl)isoindolin-1-one] |
| 0.00501 to 0.02 | C[C@H]1CCCN(Cc2cc3c(c(C(F)(F)F)c2)CN(c2cc(C4(Cc5nncn5C)COC4)cc(N4CCNCC4)n2)C3=O)C1 [Compound 140, (S)-2-(4-(3-((4-methyl-4H-1,2,4-triazol-3-yl)methyl)oxetan-3-yl)-6-(piperazin-1-yl)pyridin-2-yl)-6-((3-methylpiperidin-1-yl)methyl)-4-(trifluoromethyl)isoindolin-1-one; trifluoro acetic acid] |
| 0.001 to 0.005 | C[C@H]1CCCN(Cc2cc3c(c(C(F)(F)F)c2)CN(c2cc(C4(Cc5nncn5C)COC4)cc(NCCCC#N)n2)C3=O)C1 [Compound 143, 4-[(4-{3-[(4-methyl-1,2,4-triazol-3-yl)methyl]oxetan-3-yl}-6-(6-{[(3S)-3-methylpiperidin-1-yl]methyl}-1-oxo-4-(trifluoromethyl)-3H-isoindol-2-yl)pyridin-2-yl)amino]butanenitrile; trifluoroacetic acid] |
